One test relates to E.G7-OVA PD-L1^high tumors. As to the kind of experiment: Tumor treatment study: peptide immunization after OT-1 adoptive transfer. Format: in vivo, C57BL/6 mice. The note with it: tumors removed on day 40, flow cytometry; 100 µg peptide in CFA. On the technique in general: A flow cytometer gives signals particle by particle.
In the case of SIINTEKL [FT], the “Number of CD8 TILs (percent of CD45^+ cells) compared to high-affinity vaccination” value is “significantly increased”.

A further test concerns HLA-A2. As to the kind of experiment: Peptide binding affinity: stabilization of HLA-A2 on TAP-deficient T2 cells. To be noted: stabilization (normalized mean fluorescence intensity) of HLA-A2 on TAP-deficient T2 cells by test peptide relative to a non-binding peptide; six hours incubation; flow cytometry.
The sequence RLQGISPKV [IV] had an Observed relative binding of 3.88. Turning to RLQGISPKP [IP], the Observed relative binding is given as 1.07. On to RIQGISPKI [LI], for which the Observed relative binding came to 2.34. For the sequence RLQGISPKI [Nat], the Observed relative binding came out at 3.61.

In the case of FLQGISPKA [RF-IA], the Observed relative binding is recorded as 4.78. Sequence RAQGISPKI [LA] gave an Observed relative binding of 1.31. Take FLQGISPKV [RF-IV]: the Observed relative binding was 4.25. Still for that read-out and setting: for FLQGISPKI [RF] the value was 4.97.

On to RLQGISPKA [IA], for which the Observed relative binding worked out at 3.79.

For RLQGISPKL [IL], the Observed relative binding is recorded as 3.89.
